From ChEMBL document CHEMBL1151004, “The synthesis and structure activity relationships of enantiomerically pure hydroxylated oxotremorine derivatives” (Bioorg Med Chem Lett, 1992)

How the values were obtained:
[1] = Compound was evaluated for ratio of 3H-QNB, [3H]CD
[2] = biological target: Muscarinic acetylcholine receptor; experiment: In vitro ability to displace [3H]quinuclidinyl benzilate [3H]QNB) from rat cortical Muscarinic acetylcholine receptor in competition assay; format: protein assay
[3] = biological target: Muscarinic acetylcholine receptor; experiment: In vitro ability to displace 3H-cis-methyltrimethylammoniummethyl-1,3-dioxolane [3H]CD) from rat cortical Muscarinic acetylcholine receptor in competition assay; format: protein assay

Compound	Ratio [1]	Ki [2] [µM]	Ki [3] [µM]
O=C1CCCN1CC#CCN1CCCC1	120		
C[N+](C)(C)CCOC(N)=O	2000		
O=C1CCCN1CC#CCN1CC[C@H](O)C1	2	1.2	0.61
O=C1CCCN1CC#CCN1CC[C@@H](O)C1	0.7	1.8	2.38
O=C1C[C@@H](O)CN1CC#CCN1CCCC1	38	3	0.078
O=C1[C@H](O)CCN1CC#CCN1CCCC1	17	2.1	0.12
O=C1C[C@H](O)CN1CC#CCN1CCCC1	0.9	7.5	8.56
O=C1[C@@H](O)CCN1CC#CCN1CCCC1	150	1.4	0.009
